Reference: ChEMBL document CHEMBL1201862, “PubChem BioAssay data set” (2004)
Active and inactive are the calls of the source.

Assays:
Tumor necrosis factor = Tumor necrosis factor (Homo sapiens, UniProt P01375); test: analog potency on TNFa NF-kB signaling – cell-based, revised, SAR follow-up (AID 2337); assay type: functional
[1] = target: T1, Nucleotide-binding oligomerization domain-containing protein 1 (Homo sapiens, UniProt Q9Y239); test: blockers of NOD1 pathway activity – revised, SAR follow-up (AID 2333); assay type: functional
T1 sequence (Q9Y239 whole entry): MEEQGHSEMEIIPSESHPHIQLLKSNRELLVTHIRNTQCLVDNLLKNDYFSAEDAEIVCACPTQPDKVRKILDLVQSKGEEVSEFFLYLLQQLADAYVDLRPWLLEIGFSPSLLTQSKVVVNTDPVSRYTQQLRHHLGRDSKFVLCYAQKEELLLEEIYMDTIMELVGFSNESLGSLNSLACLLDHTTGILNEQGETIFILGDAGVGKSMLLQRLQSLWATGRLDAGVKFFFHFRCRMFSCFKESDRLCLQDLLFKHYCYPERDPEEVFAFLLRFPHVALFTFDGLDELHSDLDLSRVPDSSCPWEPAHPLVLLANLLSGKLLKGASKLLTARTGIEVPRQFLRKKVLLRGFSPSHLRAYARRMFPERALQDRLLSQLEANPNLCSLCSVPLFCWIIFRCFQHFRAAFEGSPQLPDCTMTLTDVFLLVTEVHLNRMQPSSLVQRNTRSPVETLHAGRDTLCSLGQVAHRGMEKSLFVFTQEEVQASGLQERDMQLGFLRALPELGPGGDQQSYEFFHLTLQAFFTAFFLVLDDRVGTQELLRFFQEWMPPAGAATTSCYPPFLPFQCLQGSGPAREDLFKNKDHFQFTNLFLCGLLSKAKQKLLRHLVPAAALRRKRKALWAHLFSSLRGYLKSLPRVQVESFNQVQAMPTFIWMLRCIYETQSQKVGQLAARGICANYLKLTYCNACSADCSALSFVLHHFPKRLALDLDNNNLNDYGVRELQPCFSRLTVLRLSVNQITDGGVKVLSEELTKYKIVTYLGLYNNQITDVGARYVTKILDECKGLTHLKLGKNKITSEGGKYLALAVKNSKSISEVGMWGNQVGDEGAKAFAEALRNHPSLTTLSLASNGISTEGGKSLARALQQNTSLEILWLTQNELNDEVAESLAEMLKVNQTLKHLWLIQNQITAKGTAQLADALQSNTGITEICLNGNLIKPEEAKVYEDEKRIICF

[2] = target: Nucleotide-binding oligomerization domain-containing protein 2 (Homo sapiens, UniProt Q9HC29); test: PubChem AID 2334; assay type: functional
Chain of Nucleotide-binding oligomerization domain-containing protein 2 (Q9HC29 whole entry, the tested form may be a part): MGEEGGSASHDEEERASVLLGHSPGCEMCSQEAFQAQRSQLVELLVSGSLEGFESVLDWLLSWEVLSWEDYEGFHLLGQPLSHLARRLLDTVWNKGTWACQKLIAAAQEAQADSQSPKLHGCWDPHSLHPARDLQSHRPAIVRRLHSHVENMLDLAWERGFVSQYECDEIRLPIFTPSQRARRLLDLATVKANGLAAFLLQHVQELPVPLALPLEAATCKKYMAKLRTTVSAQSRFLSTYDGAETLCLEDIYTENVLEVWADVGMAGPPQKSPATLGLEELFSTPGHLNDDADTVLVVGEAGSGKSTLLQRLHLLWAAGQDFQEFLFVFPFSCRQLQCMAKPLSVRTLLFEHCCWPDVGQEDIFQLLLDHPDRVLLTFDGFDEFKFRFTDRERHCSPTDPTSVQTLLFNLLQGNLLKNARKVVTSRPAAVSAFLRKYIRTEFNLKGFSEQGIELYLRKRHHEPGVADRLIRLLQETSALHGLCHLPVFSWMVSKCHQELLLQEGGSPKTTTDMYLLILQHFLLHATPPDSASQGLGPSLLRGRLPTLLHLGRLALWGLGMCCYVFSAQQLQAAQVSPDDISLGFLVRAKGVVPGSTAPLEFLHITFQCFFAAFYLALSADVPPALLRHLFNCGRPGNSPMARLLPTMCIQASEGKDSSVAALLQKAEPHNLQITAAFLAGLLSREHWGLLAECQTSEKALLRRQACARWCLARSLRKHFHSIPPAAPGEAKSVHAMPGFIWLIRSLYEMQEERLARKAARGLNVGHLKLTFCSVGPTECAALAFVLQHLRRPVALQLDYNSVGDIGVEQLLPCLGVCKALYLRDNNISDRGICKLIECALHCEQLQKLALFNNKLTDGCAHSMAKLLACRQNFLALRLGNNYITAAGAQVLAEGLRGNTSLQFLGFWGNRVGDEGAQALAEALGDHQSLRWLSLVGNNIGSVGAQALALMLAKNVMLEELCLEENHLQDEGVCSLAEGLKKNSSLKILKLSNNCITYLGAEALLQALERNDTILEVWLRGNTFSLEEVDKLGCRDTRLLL

HEK293 = test: cells; conditions: Homo sapiens
[3] = target: T2, Tyrosine-protein phosphatase non-receptor type 7 (Homo sapiens, UniProt P35236); assay type: functional
T2 sequence (P35236 whole entry): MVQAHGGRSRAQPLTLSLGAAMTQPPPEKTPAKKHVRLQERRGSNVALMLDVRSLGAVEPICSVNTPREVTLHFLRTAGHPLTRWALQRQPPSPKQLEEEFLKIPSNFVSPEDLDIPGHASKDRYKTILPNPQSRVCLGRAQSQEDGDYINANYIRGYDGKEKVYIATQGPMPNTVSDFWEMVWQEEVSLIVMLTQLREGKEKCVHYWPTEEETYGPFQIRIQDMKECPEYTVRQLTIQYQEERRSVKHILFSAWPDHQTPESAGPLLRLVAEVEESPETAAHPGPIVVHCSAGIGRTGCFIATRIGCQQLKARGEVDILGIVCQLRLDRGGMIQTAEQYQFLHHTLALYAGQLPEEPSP

[4] = target: Glyceraldehyde-3-phosphate dehydrogenase (Homo sapiens, UniProt P04406)
Chain of Glyceraldehyde-3-phosphate dehydrogenase (P04406 whole entry): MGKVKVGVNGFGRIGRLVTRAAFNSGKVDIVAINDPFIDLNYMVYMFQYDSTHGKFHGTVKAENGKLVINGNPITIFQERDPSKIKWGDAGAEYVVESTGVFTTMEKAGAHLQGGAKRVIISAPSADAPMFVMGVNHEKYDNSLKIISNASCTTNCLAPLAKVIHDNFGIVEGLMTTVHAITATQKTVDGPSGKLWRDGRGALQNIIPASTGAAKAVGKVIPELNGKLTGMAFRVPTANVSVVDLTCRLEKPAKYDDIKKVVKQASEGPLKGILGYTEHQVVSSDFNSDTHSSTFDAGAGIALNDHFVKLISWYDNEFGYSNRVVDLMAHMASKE

[5] = target: T3, Dual specificity protein phosphatase 6 (Rattus norvegicus, UniProt Q64346)
T3 sequence (Q64346 whole entry): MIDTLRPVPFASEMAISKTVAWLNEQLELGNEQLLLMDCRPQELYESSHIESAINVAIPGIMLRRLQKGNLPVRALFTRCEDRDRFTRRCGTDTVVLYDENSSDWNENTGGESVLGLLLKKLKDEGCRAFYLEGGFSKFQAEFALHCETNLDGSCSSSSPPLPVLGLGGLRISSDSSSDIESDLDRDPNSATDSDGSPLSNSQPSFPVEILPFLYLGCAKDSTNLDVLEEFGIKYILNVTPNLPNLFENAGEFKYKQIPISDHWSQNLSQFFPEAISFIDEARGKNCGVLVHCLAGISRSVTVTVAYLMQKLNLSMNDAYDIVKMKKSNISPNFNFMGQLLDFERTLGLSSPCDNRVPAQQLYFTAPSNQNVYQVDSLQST

[6] = target: T3, Dual specificity protein phosphatase 6; assay type: functional
Streptokinase A = target: T4, Streptokinase A (Streptococcus pyogenes serotype M1, UniProt P10520); test: viability-normalized secreted streptokinase activity reduction – plasminogen activation absorbance, OD405, dose response (AID 1914); assay type: functional, Streptococcus pyogenes M1 GAS;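 further: secreted streptokinase activity via plasminogen activation per viability signal from cell pellet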
T4 sequence (P10520 whole entry): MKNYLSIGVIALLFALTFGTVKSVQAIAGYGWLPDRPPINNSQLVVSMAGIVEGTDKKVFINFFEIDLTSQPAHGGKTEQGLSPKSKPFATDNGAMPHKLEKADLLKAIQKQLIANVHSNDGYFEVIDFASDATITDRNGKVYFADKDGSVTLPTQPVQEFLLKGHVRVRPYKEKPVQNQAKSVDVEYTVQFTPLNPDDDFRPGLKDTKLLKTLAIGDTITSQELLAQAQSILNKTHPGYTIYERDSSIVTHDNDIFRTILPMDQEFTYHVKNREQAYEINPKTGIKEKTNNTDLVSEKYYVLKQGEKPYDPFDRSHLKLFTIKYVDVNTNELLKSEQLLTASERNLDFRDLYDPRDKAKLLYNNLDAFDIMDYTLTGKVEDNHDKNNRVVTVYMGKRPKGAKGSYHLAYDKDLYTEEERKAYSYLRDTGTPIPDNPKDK

Genome polyprotein = Genome polyprotein (dengue virus type 2, UniProt P29990); test: flavivirus cap methylation enzyme inhibition – biochemical, confirmation dose response, primary screen (AID 588689); assay type: functional
Chain of Genome polyprotein (P29990 2492-3391 limits assumed): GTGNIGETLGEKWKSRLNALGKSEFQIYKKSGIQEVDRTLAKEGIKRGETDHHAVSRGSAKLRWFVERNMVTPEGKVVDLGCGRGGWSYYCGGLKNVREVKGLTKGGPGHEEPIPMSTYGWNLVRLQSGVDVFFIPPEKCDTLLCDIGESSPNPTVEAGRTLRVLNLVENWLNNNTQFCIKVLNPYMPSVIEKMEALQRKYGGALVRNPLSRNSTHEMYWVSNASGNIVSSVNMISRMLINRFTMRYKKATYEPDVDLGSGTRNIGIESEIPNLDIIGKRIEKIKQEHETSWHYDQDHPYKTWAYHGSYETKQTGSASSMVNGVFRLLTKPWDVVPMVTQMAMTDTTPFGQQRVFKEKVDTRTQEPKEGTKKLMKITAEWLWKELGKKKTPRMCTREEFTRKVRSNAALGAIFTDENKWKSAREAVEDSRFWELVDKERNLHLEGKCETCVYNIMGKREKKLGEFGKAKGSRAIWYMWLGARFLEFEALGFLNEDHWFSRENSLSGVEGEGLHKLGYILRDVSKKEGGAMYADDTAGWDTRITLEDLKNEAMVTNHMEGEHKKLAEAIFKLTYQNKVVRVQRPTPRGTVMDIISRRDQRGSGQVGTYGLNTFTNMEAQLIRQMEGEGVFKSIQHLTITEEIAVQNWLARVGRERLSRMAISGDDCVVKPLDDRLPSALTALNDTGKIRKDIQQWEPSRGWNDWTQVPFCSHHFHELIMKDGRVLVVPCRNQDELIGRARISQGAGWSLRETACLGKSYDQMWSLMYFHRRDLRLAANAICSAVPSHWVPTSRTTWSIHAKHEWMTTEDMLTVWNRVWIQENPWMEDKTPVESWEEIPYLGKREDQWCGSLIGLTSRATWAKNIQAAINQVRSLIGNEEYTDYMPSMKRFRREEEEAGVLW

[7] = target: Scavenger receptor class B member 1 (Mus musculus, UniProt Q61009); test: mouse SR-BI DiI-HDL uptake blockers – ldlA[mSR-BI] cells, fluorescence, cherry pick, dose response (AID 493194); assay type: functional, cell-based;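 further: cellular uptake of fluorescent DiI-labeled HDL measured as cell fluorescence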
Chain of Scavenger receptor class B member 1 (Q61009 whole entry): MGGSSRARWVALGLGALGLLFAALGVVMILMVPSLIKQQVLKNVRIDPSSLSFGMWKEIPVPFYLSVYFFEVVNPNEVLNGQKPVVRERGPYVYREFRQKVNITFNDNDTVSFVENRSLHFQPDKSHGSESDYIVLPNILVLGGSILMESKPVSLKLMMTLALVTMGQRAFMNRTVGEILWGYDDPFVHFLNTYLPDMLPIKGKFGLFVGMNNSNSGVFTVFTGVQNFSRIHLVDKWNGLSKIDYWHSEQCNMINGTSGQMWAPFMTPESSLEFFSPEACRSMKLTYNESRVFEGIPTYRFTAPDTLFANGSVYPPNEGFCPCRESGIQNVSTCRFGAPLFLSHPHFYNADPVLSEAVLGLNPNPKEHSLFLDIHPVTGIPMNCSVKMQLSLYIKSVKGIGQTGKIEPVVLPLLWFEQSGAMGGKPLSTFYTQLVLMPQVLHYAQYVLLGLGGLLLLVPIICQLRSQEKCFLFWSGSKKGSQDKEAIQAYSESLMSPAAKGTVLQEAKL

Beta-galactosidase = Beta-galactosidase (Escherichia coli, UniProt Q8VNN2); test: detection-enzyme interference by beta-gal modulators – biochemical, E. coli enzyme, set 3, artefact control for CCR6 antagonist project, dose response (AID 504712); assay type: functional
Chain of Beta-galactosidase (Q8VNN2 whole entry): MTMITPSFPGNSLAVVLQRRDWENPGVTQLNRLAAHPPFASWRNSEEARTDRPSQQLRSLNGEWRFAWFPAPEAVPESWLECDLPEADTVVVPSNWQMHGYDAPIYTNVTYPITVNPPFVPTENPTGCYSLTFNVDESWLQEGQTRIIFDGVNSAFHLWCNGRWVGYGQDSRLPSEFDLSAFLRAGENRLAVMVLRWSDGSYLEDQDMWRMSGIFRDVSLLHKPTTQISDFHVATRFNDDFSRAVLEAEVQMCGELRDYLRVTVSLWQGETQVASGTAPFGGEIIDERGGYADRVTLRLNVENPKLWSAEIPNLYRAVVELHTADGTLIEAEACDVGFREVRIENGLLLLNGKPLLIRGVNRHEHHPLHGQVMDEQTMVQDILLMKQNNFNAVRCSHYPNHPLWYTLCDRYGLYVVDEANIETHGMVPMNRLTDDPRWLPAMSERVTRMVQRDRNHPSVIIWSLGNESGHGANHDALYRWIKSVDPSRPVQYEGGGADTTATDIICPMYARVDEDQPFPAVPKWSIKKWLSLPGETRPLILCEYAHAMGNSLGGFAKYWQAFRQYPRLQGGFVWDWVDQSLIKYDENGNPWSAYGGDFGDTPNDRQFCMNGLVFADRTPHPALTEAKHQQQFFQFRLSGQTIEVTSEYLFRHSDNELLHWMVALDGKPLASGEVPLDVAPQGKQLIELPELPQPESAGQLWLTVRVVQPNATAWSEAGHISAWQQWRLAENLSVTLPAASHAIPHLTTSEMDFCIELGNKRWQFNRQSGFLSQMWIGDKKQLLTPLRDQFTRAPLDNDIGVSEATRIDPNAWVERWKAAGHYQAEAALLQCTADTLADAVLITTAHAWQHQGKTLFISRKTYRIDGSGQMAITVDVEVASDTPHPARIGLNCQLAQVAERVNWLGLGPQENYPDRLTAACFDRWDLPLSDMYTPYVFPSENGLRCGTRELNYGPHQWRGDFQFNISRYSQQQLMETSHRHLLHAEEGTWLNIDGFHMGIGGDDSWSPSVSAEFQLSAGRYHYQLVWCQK

Melanocortin receptor 4 = Melanocortin receptor 4 (Homo sapiens, UniProt P32245); test: inhibitors of MC4R cAMP signaling – cell-based, TR-FRET, biased antagonists, dose response (AID 602298); assay type: functional;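 further: antagonist potency against agonist-stimulated cAMP production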
Chain of Melanocortin receptor 4 (P32245 whole entry): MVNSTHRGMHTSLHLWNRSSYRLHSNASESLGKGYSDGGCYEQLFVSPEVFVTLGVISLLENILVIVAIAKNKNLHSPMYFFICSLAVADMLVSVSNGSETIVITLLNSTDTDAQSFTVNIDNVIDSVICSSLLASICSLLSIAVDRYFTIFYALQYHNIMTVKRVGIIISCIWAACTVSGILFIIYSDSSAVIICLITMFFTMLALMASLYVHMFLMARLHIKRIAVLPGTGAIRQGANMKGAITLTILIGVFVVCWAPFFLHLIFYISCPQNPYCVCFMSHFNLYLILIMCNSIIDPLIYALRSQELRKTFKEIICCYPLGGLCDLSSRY

[8] = reduction of Shn3 3'UTR-driven luciferase in osteoblasts – cell-based, Clone20 osteoblasts, firefly luciferase, cherry-picked, dose response (AID 624132); assay type: functional;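 further: firefly luciferase luminescence from reporter carrying the Shn3 3'UTR in osteoblasts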
[9] = loss of viability in HepG2 cells – cell-based, CellTiter-Glo, cherry-picked, cytotoxicity control for Shn3 inhibitor project, dose response (AID 624134); assay type: functional
[10] = non-specific 3'UTR reporter inhibition in Clone20-Shn3RL – cell-based, Renilla luciferase, cherry-picked, counter-screen for Shn3 inhibitor project, dose response (AID 624133); assay type: functional
[11] = cAMP pathway inhibition in counterscreen cell line – TR-FRET cAMP detection, counter-screen for MC4R biased antagonist project, dose response (AID 602305); assay type: functional, cell-based;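 further: U2OS cells stimulated with forskolin near its EC80 as the cAMP inducer; potency is for inhibition of forskolin-stimulated cAMP signaling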
[12] = target: Photoreceptor-specific nuclear receptor (Homo sapiens, UniProt Q9Y5X4); assay type: functional, cell-based;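 further: CHO-S cells with Gal4-NCOR and VP16-NR2E3 two-hybrid luciferase reporter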
Chain of Photoreceptor-specific nuclear receptor (Q9Y5X4 whole entry, the tested form may be a part): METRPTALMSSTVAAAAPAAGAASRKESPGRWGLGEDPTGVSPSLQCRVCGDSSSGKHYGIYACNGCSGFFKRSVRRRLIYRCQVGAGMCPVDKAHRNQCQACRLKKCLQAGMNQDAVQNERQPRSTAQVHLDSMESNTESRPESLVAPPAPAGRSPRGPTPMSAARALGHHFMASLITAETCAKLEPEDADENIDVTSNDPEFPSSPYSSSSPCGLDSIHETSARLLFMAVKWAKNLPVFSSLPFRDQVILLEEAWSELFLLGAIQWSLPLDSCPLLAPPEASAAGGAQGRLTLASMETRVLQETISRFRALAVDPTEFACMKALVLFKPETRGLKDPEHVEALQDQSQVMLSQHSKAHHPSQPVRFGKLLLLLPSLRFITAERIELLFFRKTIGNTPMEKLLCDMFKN

[13] = reduced cellular PGC1a acetyl-lysine signal – cell-based, cherry-picked samples, dose response (AID 720514); assay type: functional;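 further: potency may reflect raised or lowered acetylation signal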
[14] = target: DNA dC->dU-editing enzyme APOBEC-3A (Homo sapiens, UniProt P31941); test: A3A deaminase inhibition for selectivity – biochemical, dose response (AID 504722); assay type: functional
Chain of DNA dC->dU-editing enzyme APOBEC-3A (P31941 whole entry): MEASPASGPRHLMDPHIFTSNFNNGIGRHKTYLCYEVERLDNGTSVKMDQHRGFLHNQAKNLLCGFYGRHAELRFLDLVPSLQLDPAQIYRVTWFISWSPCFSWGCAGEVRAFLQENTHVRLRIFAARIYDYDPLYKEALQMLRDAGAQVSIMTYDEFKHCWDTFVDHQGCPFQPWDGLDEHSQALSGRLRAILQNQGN

[15] = target: DNA dC->dU-editing enzyme APOBEC-3G (Homo sapiens, UniProt Q9HC16); test: Dose Response confirmation of small molecule APOBEC3G DNA Deaminase Inhibitors via a fluorescence-based single-stranded DNA deaminase assay. [Related pubchem assays (depositor defined):AID493012, AID493028]; assay type: functional

Chain of Tumor necrosis factor (P01375 whole entry, the tested form may be a part): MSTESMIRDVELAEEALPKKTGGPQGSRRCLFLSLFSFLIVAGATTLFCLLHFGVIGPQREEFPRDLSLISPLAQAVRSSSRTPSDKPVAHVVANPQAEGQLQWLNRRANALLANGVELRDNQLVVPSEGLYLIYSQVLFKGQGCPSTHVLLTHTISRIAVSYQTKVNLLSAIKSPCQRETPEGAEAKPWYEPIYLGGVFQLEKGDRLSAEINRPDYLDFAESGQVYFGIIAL

## N#C/C(=C(/O)COC(=O)CSc1ccc2ccccc2c1)c1nc2ccccc2[nH]1
Tumor necrosis factor
  IC50: > 20 µM (inactive)
[1]
  IC50: > 20 µM (inactive)
[2]
  IC50: > 20 µM (inactive)
HEK293
  IC50: > 20 µM (inactive)

## CCOC(=O)C1Nc2c(O)ccc(C)c2C2C=CCC12 (centres undefined)
[3]
  IC50: > 100 µM (not active)
[4]
  IC50: > 100 µM (not active)
[5]
  IC50: > 100 µM (inactive)
[6]
  IC50: > 100 µM (inactive)

## N#Cc1c(-c2ccccc2)nc(SCc2cccc(C(F)(F)F)c2)[nH]c1=O
Streptokinase A
  EC50: 6.34 µM (active)
Tumor necrosis factor
  IC50: 8.05 µM (active)
[1]
  IC50: 6.48 µM (active)
[2]
  IC50: 7.5 µM (active)
Genome polyprotein
  IC50: 42.7 µM (active)

## Cc1cc(-c2csc(N)n2)c(C)n1-c1ccc(Cl)c(Cl)c1
[7]
  AC50: 12.9 µM (active)

## O=S(=O)(/C(=C\c1ccc(C(F)(F)F)cc1)c1nc2ccccc2[nH]1)c1ccccc1
Beta-galactosidase
  IC50: > 66.6 µM (inactive)
Melanocortin receptor 4
  IC50: 9.39 µM (active)
[8]
  AC50: 1.85 µM (active)
[9]
  AC50: 6.49 µM (active)
[10]
  AC50: < 500 nM (active)
[11]
  IC50: > 64.6 µM (inactive)
[12]
  IC50: 4.42 µM (active)
[13]
  AC50: 3.11 µM (active)

## CC(/C=N/n1c(S)nnc1-c1cc(C)[nH]n1)=C\c1ccco1
[14]
  IC50: > 100 µM (inactive)
[15]
  IC50: 2.47 µM (active)
